Results on five compounds are retold here after patent US20240254218A1 (ICAHN SCHOOL OF MEDICINE AT MOUNT SINAI, priority 2021, published 2024).

The subject of one assay is FSHR signaling. The assay can be described thus: Pathway inhibitors on FSH-induced signalling in SH-SY5Y cells. The format is cell-based, human. The note with it: FSH 30 ng/ml 30 minutes; for FSH-induced SRPK2 phosphorylation/activation / FSH-induced AEP activation (cleavage and phosphorylation) / FSH-induced C/EBPβ activation/expression: AKTi-1/2 10 μM; for FSH-induced SRPK2 phosphorylation/activation / FSH-induced AEP activation (cleavage and phosphorylation) / FSH-induced C/EBPβ activation/expression / FSH-induced AKT phosphorylation: PD98059 10 μM; for FSH-induced AEP activation (cleavage and phosphorylation) / FSH-induced C/EBPβ activation/expression / FSH-induced AKT phosphorylation: PTX 50 ng/ml. The source says:
Of note, MAPK-induced phosphorylation of residue T188 of C/EBPβ regulates its transcriptional activity (Ramji, D. P. & Foka, P. Biochem J 365, 561-575, (2002)). Likewise, AKT phosphorylates SRPK2, which, in turn, activates AEP by phosphorylating residue S266. […] Pertussis toxin inhibited FSH-induced C/EBPβ and AEP activation and AKT phosphorylation (FIG. 2E). […] In contrast, while the MEK1 inhibitor PD98059 blocked FSH-induced C/EBPβ, AEP and SRPK2 activation, AKT was unaffected (FIG. 2E).

A further assay deals with T1, FSH receptor (FSHR) (Homo sapiens, UniProt P23945).
T1 sequence (P23945 18-695): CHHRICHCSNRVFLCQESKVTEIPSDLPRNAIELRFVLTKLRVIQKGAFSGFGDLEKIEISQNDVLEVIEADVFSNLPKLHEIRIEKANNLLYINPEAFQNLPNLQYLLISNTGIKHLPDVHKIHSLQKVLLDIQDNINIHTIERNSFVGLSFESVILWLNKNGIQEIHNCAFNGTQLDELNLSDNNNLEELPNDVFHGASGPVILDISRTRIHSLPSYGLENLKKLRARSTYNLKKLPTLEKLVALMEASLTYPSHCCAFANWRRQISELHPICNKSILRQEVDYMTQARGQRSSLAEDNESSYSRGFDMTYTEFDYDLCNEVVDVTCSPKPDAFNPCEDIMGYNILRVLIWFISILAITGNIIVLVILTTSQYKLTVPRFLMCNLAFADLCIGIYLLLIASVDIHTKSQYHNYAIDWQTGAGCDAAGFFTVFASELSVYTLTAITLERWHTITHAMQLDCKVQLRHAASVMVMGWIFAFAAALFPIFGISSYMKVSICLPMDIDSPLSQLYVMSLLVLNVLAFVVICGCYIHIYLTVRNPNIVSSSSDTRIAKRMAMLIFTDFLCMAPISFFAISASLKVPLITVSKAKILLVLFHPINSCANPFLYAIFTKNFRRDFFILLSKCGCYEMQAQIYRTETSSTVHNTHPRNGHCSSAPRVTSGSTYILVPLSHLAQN
The note with it: cited from earlier work.

As for `O=c1[nH]c2ccccc2n1C1CCN(Cc2ccc(-c3nc4cc5nc[nH]c5cc4nc3-c3ccccc3)cc2)CC1` [AKTi-1/2], in the assay with FSHR signaling, the “FSH-induced SRPK2 phosphorylation/activation” value is recorded as “attenuated”; the “FSH-induced AEP activation (cleavage and phosphorylation)” value (from here on “FSH-induced AEP activation”) is recorded as “attenuated”; the “FSH-induced C/EBPβ activation/expression” value is on record as “attenuated”.
As for `COc1cccc(-c2cc(=O)c3ccccc3o2)c1N` [PD98059], in the assay with FSHR signaling, the “FSH-induced SRPK2 phosphorylation/activation” value is reported as “blocked”; the “FSH-induced AEP activation” value is reported as “blocked”; the “FSH-induced C/EBPβ activation/expression” value was “blocked”; the “FSH-induced AKT phosphorylation” value is reported as “unaffected”.
`Nc1ncnc2c1ncn2C1CCCO1` (stereo not drawn) [SQ22536]: the “effect on any signaling molecule” value with FSHR signaling (SQ22536 100 μM) is recorded as “Absence of an effect”.
With `COc1ccc(N=Nc2c(S(=O)(=O)[O-])cc3cc(Nc4nc(Cl)nc(N(CCC(N)=O)CCC(N)=O)n4)ccc3c2O)cc1.[Na+]` [7-[4-[Bis-(2-carbamoyl-ethyl)-amino]-6-chloro-(1,3,5)-triazin-2-ylamino)-4-hydroxy-3-(4-methoxy-phenylazo)-naphthalene]-2-sulfonic acid, sodium salt], the “mode of action on the FSH receptor (FSHR)” value on FSH receptor (FSHR) is listed as “selective, noncompetitive inhibitor”.
Take pertussis toxin: in the assay with FSHR signaling, the “FSH-induced AEP activation” value is listed as “inhibited”; the “FSH-induced C/EBPβ activation/expression” value is on record as “inhibited”; the “FSH-induced AKT phosphorylation” value was “inhibited”.
